Assay results as given in US20250281629A1, “COMPOSITIONS AND METHODS FOR ANTI-PHOSPHOCHOLINE ACTIVE IMMUNOTHERAPY” (Duke University, priority 2022, published 2025).
Where no end group is shown, it is not given here. C11H22NO6P = phosphorylcholine group attached via 2-methacryloyloxyethyl phosphorylcholine

Experiments:
[1] = Zeta potential of nanofibers; type: physicochemical; conditions: 1 mM conjugate coassembled with 1 mM Q11; 0.2 mM in 1×PBS, 25° C.
Experimental: Zeta Potential. Nanofibers were diluted to 0.2 mM in 1×PBS and zeta potential measurements were conducted at 25° C. using an Anton Paar Litesizer 500.

C57BL/6 mice = assay: Chronic DSS-induced colitis, prophylactic immunization; type: in vivo, mouse
Description: DSS-Induced Colitis and Assessment. Before inducing colitis, mice from each treatment group were divided amongst the cages to avoid any cage-related disease effects. This excluded the PBS without DSS (healthy) control mice which remained in their own cage and received normal drinking water for the duration of the experiment. Colitis was induced by administering 2% (w/v) colitis-grade dextran sodium sulfate (MP Biomedicals, 160110) in drinking water. For determination of prophylactic immunization efficacy, mice were immunized i.p. 3 times at days −35, −21 and −7 before colitis induction on Day 0. Chronic colitis was induced via DSS-containing water given for 5 days followed by 5 days of normal drinking water for 3 cycles, resulting in a 30-day model. A shorter, acute DSS-induced colitis model consisting of one cycle of colitis was achieved by giving 5 days of 2% DSS in water followed by 5 days of normal drinking water for a total of 10 days and was also examined in a preventative immunization scenario. Mice were weighed daily and evaluated for the IACUC approved humane endpoint of >30% weight loss as DSS mice regain weight quickly after DSS administration ceases. They were also monitored for occult blood with Hemoccult tape and developer (Beckman Coulter, 63202) and fecal consistency. Disease activity index (DAI) scores were a combination of weight loss (≥100%=0, 90-99%=1, 80-89%=2, […]), occult blood (no blood=0, blood=3), and fecal consistency (hard=0, soft=1, softer=2, runny=3), with a possible daily maximum score of 9. […] At the experimental endpoint, mice were euthanized, and colon lengths were measured from the base of the cecum to the rectum using digital calibrators. To determine immunization efficacy in a therapeutic colitis setting, colitis was first induced by administering one cycle of colitis achieved by 5 days of 2% DSS in water followed by 5 days of normal drinking water for a total of 10 days. Mice were monitored daily as described above until they on average regained their original body weight on day 20. At this point, i.p. immunizations were initiated and given three times over a 4-week period on days 20, 32, and 45, and colitis monitoring was reduced to twice weekly. An additional cycle of colitis was then induced on day 51 via 5 days of 2% DSS in water followed by 5 days of normal drinking water for a total of 10 days with daily monitoring. The entire therapeutic model ended on day 60, and colon lengths were measured as described above.
FITC-dextran Measurements. On the last day of the chronic and therapeutic DSS colitis models, mice were fasted overnight and then given 0.6 mg/g 3-5 KDa m.w. FITC-dextran (Sigma, FD4) in 100 μL of sterile 1×PBS via oral gavage. Serum samples were collected 3 h later at the experimental endpoint. To determine the intestinal barrier permeability, serum samples were diluted in 1×PBS and FITC fluorescence intensity was measured at an excitation of 488 nm and emission of 520 nm. Values were converted to pg/mL via a standard curve of FITC-dextran in serum.
Spleen Bacteria Measurements. At the conclusion of the DSS experiments, spleens were harvested and weighed followed by homogenization in 500 μL of 0.1% Triton X-100 in sterile 1×PBS using a Tissue Tearer handheld homogenizer (Biospec Products). 25 μL of homogenate solution was then spread on each quarter of culture plates consisting of tryptic soy broth No. 2 (Sigma, 51228) and Difco agar, granulated (BD Biosciences, 214530) in dilutions from 100 to 103. After a 48 hr incubation at 37° C., colony forming units (CFUs) were counted and converted to CFU/g of spleen tissue via the equations: […]
Colon IL-10 Quantification. At the conclusion of some DSS experiments, one half of the harvested mouse colons were flushed with PBS to remove fecal matter and flash frozen in liquid nitrogen. […]

occludin = assay: Immunofluorescence of colon tight junction protein occludin; type: in vivo, mouse; conditions: week 5; vs PBS control mice
Experimental: Immunofluorescence Imaging and Analysis. Immunofluorescence was conducted on sections from proximal colon samples frozen in OCT and sectioned. Slides were first thawed and outlined with a hydrophobic pen (ImmEdge Hydrophobic Barrier PAP Pen, Vector Labs, H-4000) then fixed with 4% paraformaldehyde for 10 min at room temperature. The slides were washed three times with wash buffer (1×PBS+100 mM CaCl2+100 mM MgCl) for 10 min at room temperature then incubated in a blocking solution containing 0.3% Triton X-100 and 10% normal donkey serum in 1×PBS+100 mM CaCl2+100 mM MgCl for 1 h at room temperature. The slides were then incubated in the primary antibodies (rat anti-ZO-1, clone R40.70, Fisher Scientific, MABT11; rabbit anti-occludin, clone EPR20992, Abcam, ab216327) diluted 1:100 in the blocking solution overnight at 4° C. The slides were washed three times with wash buffer for 10 min at room temperature. They were then incubated in the secondary antibodies (donkey anti-rat Alexa Fluor™ 568, Thermo Fisher, A78946; donkey anti-rabbit Alexa Fluor™ 647, Thermo Fisher, A31573) and nuclear marker DAPI diluted 1:500 in the blocking solution for 2 h at room temperature. […] The intensities of each marker were quantified using ImageJ and expressed as the integrated density of the fluorescent signal normalized to the area fraction of DAPI positive pixels. […]

[2] = 2% DSS, 3 cycles, 30 days, vs disease controls

Substance	zeta potential (surface charge) of nanofibers [1]	disease activity index (DAI) scores / disease severity (C57BL/6 mice; [2])	weight loss (C57BL/6 mice; [2])	serum anti-PC IgG subclass responses at week 5 (C57BL/6 mice; before DSS administration)	IL-10 levels in colon homogenates (C57BL/6 mice; chronic colitis experiment 1)	colon length (colon shortening) (C57BL/6 mice; day 30, vs disease controls)	serum anti-PC IgM (C57BL/6 mice; i.p. days −35, −21, −7, without CpG)	occludin levels in colon after immunization (occludin)
C11H22NO6P-CSGSG-QQKFQFQFEQQ-NH2 (C(C11H22NO6P)SGSGQQKFQFQFEQQ-NH2) [PC-Q11, phosphodiester PC-Q11]	neutrally charged							
(C11H22NO6P)n-CCCCSGSG-QQKFQFQFEQQ-NH2 (CCCCSGSGQQKFQFQFEQQ-NH2; not fully specified; cysteine pairing not given here; also: phosphorylcholine groups (C11H22NO6P) n=1-4, attachment not placed) [PCM-Q11, linear multi-PC conjugate]		improved disease severity	reduced weight loss	skewed the subclass response towards non-inflammatory IgG1 with IgG2b also present	highest levels that were not significantly different from healthy controls	diminished colon shortening	did not induce anti-PC IgM within detection levels	not significantly different
